Assay results: US8765778B2, “Rifamycin derivatives” (Alfa Wassermann, S.p.A., priority 2009, dated 2014)
In brackets after ≈: the same amount, converted by molar mass.

Assays:
bacterial infection = conditions: following a 10 day course of treatment with a pharmaceutical formulation
Excerpt: A patient suffering from a bacterial infection is identified.

S. aureus = S. aureus ATCC29213, control standard
Excerpt: (§1) They are expressed as milligrams of substance per liter of culture medium.

P. aeruginosa = P. aeruginosa ATCC 27853, control standard
Excerpt: as §1

E. coli = E. coli ATCC 25922, control standard
Excerpt: as §1

E. faecalis = conditions: ATCC 29212, control standard

COC1/C=C/OC2(C)Oc3c(C)c(O)c4c([O-])c(c5c([nH]c6cc(C)cc[n+]65)c4c3C2=O)NC(=O)/C(CO)=C\C=C\C(C)C(O)C(C)C(O)C(C)C(OC(C)=O)C1C (centres unmarked) [Example 2]
level of bacterial infection in the patient (bacterial infection): reduced
M.I.C. (S. aureus): 0.5 mg/mL
MIC (P. aeruginosa): 32 µg/mL (≈ 39.9 µM)
MIC (E. coli): 32 µg/mL (≈ 39.9 µM)
M.I.C. (E. faecalis): 64 mg/mL
